Laboratory results as given in patent US8952177B2 (Janssen Pharmaceutica NV, priority 2013, dated 2015).

Key:
human FLAP = human FLAP (Homo sapiens (Human), UniProt P20292); experiment: FLAP binding assay (HTRF format); conditions: human FLAP-containing Sf-9 membranes, 25 nM HTRF ligand, 2 h; average of runs; read-out: FLAP Binding wild type HTRF Ki
How it was run: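 His6-tagged human FLAP in Sf-9 membranes competed against a FITC-labelled indole FLAP modulator in HTRF format; 2 h reaction, read as HTRF ratio. Ki and IC50 from averaged duplicate ratios over 2–20 runs of two plates each; parenthetical numbers give run count.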

[1] = tested on: leukotriene pathway in human whole blood (LTB4); experiment: Human whole blood assay (LTB4 after calcium ionophore A23187 stimulation); type: cell-based; conditions: human whole blood diluted 1:1 in RPMI, 15 min pre-incubation, A23187 7 μg/mL for 30 min at 37° Celsius
How it was run: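 Heparinised human whole blood, diluted 1:1 in RPMI, was preincubated with compound for 15 min at 37° C. before stimulation with A23187 (7 μg/mL) for 30 min. Plasma LTB4 was measured by immunoassay kit and IC50 obtained by 4-parameter fit; single replicate per plate, blood from at least one donor.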

Chain of human FLAP (P20292 whole entry): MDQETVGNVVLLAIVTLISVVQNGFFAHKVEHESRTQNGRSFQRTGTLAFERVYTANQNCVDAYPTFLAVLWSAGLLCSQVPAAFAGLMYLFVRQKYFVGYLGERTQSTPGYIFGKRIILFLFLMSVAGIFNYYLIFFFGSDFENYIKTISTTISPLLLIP

Compound | Ki (human FLAP) | IC50 ([1]; Homo sapiens) | IC50 [1]
Cc1ccc(COc2cc(Cl)c3nc(CC4(C(=O)O)CCCC4)n(Cc4ccc(Br)cc4)c3c2)nc1 [Example 78, 1-({1-(4-Bromobenzyl)-4-chloro-6-[(5-methylpyridin-2-yl)methoxy]-1H-benzimidazol-2-yl}methyl)cyclopentanecarboxylic acid] | 24 nM | 14000 nM | –
Cc1ccc(COc2cc(Cl)c3nc(CC(C)(C)C(=O)O)n(Cc4ccc(Br)cc4)c3c2)nc1 [Example 79, 3-{1-(4-Bromobenzyl)-4-chloro-6-[(5-methylpyridin-2-yl)methoxy]-1H-benzimidazol-2-yl}-2,2-dimethylpropanoic acid] | 85 nM | ~20000 nM | –
CCC(CC)(Cc1nc2ccc(OCc3ccn(C)n3)cc2n1Cc1ccc(OC(F)(F)F)cc1C)C(=O)O [Example 92] | ~250 nM | 1440 nM | –
CCC(CC)(Cc1nc2ccc(OCc3ccc(C)cn3)cc2n1Cc1ccc(OC(F)(F)F)cc1C)C(=O)O [Example 105] | 40 nM | 6250 nM | –
Cc1ccc(Cn2c(CC(C)(C)C(=O)O)nc3ccc(OCc4ncc(C)cc4F)cc32)c(F)c1 [Example 127, 3-{1-(2-Fluoro-4-methylbenzyl)-6-[(3-fluoro-5-methylpyridin-2-yl)methoxy]-1H-benzimidazol-2-yl}-2,2-dimethylpropanoic acid] | 160 nM | 2120 nM | –
Cc1cnc(COc2ccc3nc(CC(C)(C)C(=O)O)n(Cc4ccc(Br)cc4)c3c2)c(F)c1 [Example 128, 3-{1-(4-Bromobenzyl)-6-[(3-fluoro-5-methylpyridin-2-yl)methoxy]-1H-benzimidazol-2-yl}-2,2-dimethylpropanoic acid] | 8.5 nM | 1320 nM | –
Cc1cnc(COc2ccc3nc(CC(C)(C)C(=O)O)n(Cc4c(F)cc(Br)cc4F)c3c2)c(F)c1 [Example 130, 3-{1-(4-Bromo-2,6-difluorobenzyl)-6-[(3-fluoro-5-methylpyridin-2-yl)methoxy]-1H-benzimidazol-2-yl}-2,2-dimethylpropanoic acid] | 15 nM | 840 nM | –
Cc1cnc(COc2ccc3nc(CC(C)(C)C(=O)O)n(Cc4ccc(OC(F)(F)F)cc4F)c3c2)c(F)c1 [Example 131, 3-{6-[(3-Fluoro-5-methylpyridin-2-yl)methoxy]-1-[2-fluoro-4-(trifluoromethoxy)benzyl]-1H-benzimidazol-2-yl}-2,2-dimethylpropanoic acid] | 24 nM | 3930 nM | –
CCC(CC)(Cc1nc2ccc(OCc3ncc(C)cc3F)cc2n1Cc1ccc(Br)cc1)C(=O)O [Example 136, 2-({1-(4-Bromobenzyl)-6-[(3-fluoro-5-methylpyridin-2-yl)methoxy]-1H-benzimidazol-2-yl}methyl)-2-ethylbutanoic acid] | 0.64 nM | 480 nM | –
Cc1cnc(COc2ccc3nc(CC(C)(C)C(=O)O)n(Cc4ccc(-c5ccc(C(F)(F)F)cc5)cc4F)c3c2)c(F)c1 [Example 141, 3-(6-[(3-Fluoro-5-methylpyridin-2-yl)methoxy]-1-{[3-fluoro-4′-(trifluoromethyl)biphenyl-4-yl]methyl}-1H-benzimidazol-2-yl)-2,2-dimethylpropanoic acid] | 5.1 nM | 760 nM | –
Cc1cnc(COc2ccc3nc(CC(C)(C)C(=O)O)n(Cc4ccc(-c5ccc(C(F)(F)F)cc5)cc4)c3c2)c(F)c1 [Example 142, 3-(6-[(3-Fluoro-5-methylpyridin-2-yl)methoxy]-1-{[4′-(trifluoromethyl)biphenyl-4-yl]methyl}-1H-benzimidazol-2-yl)-2,2-dimethylpropanoic acid] | 7.4 nM | 980 nM | –
Cc1cnc(COc2ccc3nc(CC(C)(C)C(=O)O)n(Cc4cccc(-c5ccc(C(F)(F)F)cc5)c4)c3c2)c(F)c1 [Example 143, 3-(6-[(3-Fluoro-5-methylpyridin-2-yl)methoxy]-1-{[4′-(trifluoromethyl)biphenyl-3-yl]methyl}-1H-benzimidazol-2-yl)-2,2-dimethylpropanoic acid] | 13 nM | 1820 nM | –
CCC(CC)(Cc1nc2ccc(OCc3ccc(C)cn3)cc2n1Cc1cccc(-c2ccc(C(F)(F)F)cc2)c1)C(=O)O [Example 149, 2-ethyl-2-((6-((5-methylpyridin-2-yl)methoxy)-1-((4′-(trifluoromethyl)-[1,1′-biphenyl]-3-yl)methyl)-1H-benzo[d]imidazol-2-yl)methyl)butanoic acid] | 36 nM | 3880 nM | –
CCC(CC)(Cc1nc2ccc(OCc3ncc(C)cc3F)cc2n1Cc1ccc(N2CCC(C)CC2)cc1)C(=O)O [Example 180, 2-Ethyl-2-({6-[(3-fluoro-5-methylpyridin-2-yl)methoxy]-1-[4-(4-methylpiperidin-1-yl)benzyl]-1H-benzimidazol-2-yl}methyl)butanoic acid] | 3 nM | 560 nM | –
CCC(CC)(Cc1nc2ccc(OCc3ncc(C)cc3F)cc2n1Cc1ccc(N2CCC(C)CC2)cc1F)C(=O)O [Example 181, 2-Ethyl-2-({1-[2-fluoro-4-(4-methylpiperidin-1-yl)benzyl]-6-[(3-fluoro-5-methylpyridin-2-yl)methoxy]-1H-benzimidazol-2-yl}methyl)butanoic acid] | 5.2 nM | 48 nM | –
CCC(CC)(Cc1nc2ccc(OCc3ncc(C)cc3F)cc2n1Cc1ccc(N2CCC(F)CC2)cc1)C(=O)O [Example 182, 2-Ethyl-2-({6-[(3-fluoro-5-methylpyridin-2-yl)methoxy]-1-[4-(4-fluoropiperidin-1-yl)benzyl]-1H-benzimidazol-2-yl}methyl)butanoic acid] | 11 nM | 480 nM | –
Cc1cnc(COc2ccc3nc(CC(C)(C)C(=O)O)n(Cc4ccc(N5CC(C(F)(F)F)C5)cc4F)c3c2)c(F)c1 [Example 183, 3-(6-[(3-Fluoro-5-methylpyridin-2-yl)methoxy]-1-{2-fluoro-4-[3-(trifluoromethyl)azetidin-1-yl]benzyl}-1H-benzimidazol-2-yl)-2,2-dimethylpropanoic acid] | 13 nM | 880 nM | –
Cc1cnc(COc2ccc3nc(CC(C)(C)C(=O)O)n(Cc4ccc(N5CCC(C(C)(C)C)CC5)cc4)c3c2)c(F)c1 [Example 184, 3-{1-[4-(4-tert-Butylpiperidin-1-yl)benzyl]-6-[(3-fluoro-5-methylpyridin-2-yl)methoxy]-1H-benzimidazol-2-yl}-2,2-dimethylpropanoic acid] | 15 nM | 800 nM | –
Cc1cnc(COc2ccc3nc(CC(C)(C)C(=O)O)n(Cc4ccc(N5CCC(F)CC5)cc4F)c3c2)c(F)c1 [Example 186] | 30 nM | 710 nM | –
CCC(CC)(Cc1nc2ccc(OCc3ccn(C)n3)cc2n1Cc1ccc(-c2ccc(C(F)(F)F)cc2)cc1F)C(=O)O [Example 187] | 7.3 nM | 360 nM | –
CCC(CC)(Cc1nc2ccc(OCc3ccn(C)n3)cc2n1Cc1ccc(-c2ccc(C(F)(F)F)cc2)cc1F)C(=O)O [Example 188] | 12 nM | – | 550 nM
CCC(CC)(Cc1nc2ccc(OCc3ccn(C)n3)cc2n1Cc1ccc(N2CCC(C(F)(F)F)CC2)cc1)C(=O)O [Example 190, 2-ethyl-2-((6-((1-methyl-1H-pyrazol-3-yl)methoxy)-1-(4-(4-(trifluoromethyl)piperidin-1-yl)benzyl)-1H-benzo[d]imidazol-2-yl)methyl)butanoic acid] | 210 nM | 930 nM | –
